Laboratory results as given in patent US11401255B2, “Small molecule activators of Parkin enzyme function” (Mayo Foundation for Medical Education and Research, priority 2016, dated 2022).
Like-named read-outs stand apart in the source and are kept apart here.

How the values were obtained:
Parkin = Parkin (Homo sapiens (Human), UniProt O60260); experiment: Parkin substrates and pS65-Ub western blot in HeLa cells stably expressing untagged Parkin; format: cell-based; details: 5 μM, 2 h, then 3.5 μM CCCP
Chain of Parkin (O60260 whole entry): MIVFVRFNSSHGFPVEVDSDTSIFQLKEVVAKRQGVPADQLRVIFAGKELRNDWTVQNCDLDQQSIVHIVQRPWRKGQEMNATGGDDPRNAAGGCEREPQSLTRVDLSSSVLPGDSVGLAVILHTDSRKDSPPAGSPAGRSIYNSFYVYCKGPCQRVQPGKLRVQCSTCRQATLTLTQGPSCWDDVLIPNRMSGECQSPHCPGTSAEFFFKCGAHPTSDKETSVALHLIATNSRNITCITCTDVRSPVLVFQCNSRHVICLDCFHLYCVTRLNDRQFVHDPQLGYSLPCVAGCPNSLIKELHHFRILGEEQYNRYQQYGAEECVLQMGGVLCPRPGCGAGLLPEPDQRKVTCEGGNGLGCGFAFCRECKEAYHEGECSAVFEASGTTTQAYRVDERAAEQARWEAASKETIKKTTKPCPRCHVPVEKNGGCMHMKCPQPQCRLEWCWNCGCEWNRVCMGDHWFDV
Description: (§1) HeLa cells stably expressing untagged Parkin were left untreated or pre-treated with 5 μM of Compounds 1, 2, 3, 4, and 31 for 2 h and treated without (−) or with (+) low dose CCCP (3.5 μM CCCP). As a positive control (PC), some cells were treated with 10 μM CCCP. Lysates were loaded onto 8-16% Tris-Glycine gels, blotted onto membranes and probed with antibodies against Parkin substrates.
as §1, with “The” for “As a”, “(PC) was” for “(PC), some cells were”, “CCCP for 2 h.” for “CCCP.”, “pS65-Ub.” for “Parkin substrates.”
Cells were harvested in RIPA buffer or NP-40 lysis buffer containing protease and phosphatase inhibitors (Complete and PhosStop, Roche Applied Science) with the exception of Parkin Ub charging experiments where preheated (95° C.) SDS lysis buffer (50 mM Tris pH 7.6, 150 mM NaCl, 1% SDS) was used. Concentration of cell lysates was determined with bicinchoninic acid (Pierce Biotechnology). For Parkin Ub charging experiments, aliquots of lysates were treated with […] for 1 h at 37° C. pH was neutralized with equinormal HCl.
Protein was subjected to SDS-PAGE using 4-20% or 8-16% Tris-Glycine gels (Invitrogen) and transferred onto polyvinylidene fluoride (PVDF) (Millipore). Membranes were incubated with primary antibodies overnight at 4° C. followed by HRP-conjugated secondary antibodies (1:10,000; Jackson ImmunoResearch Laboratories). Primary antibodies used: beta III tubulin (rabbit, 1:1000, CST, #5568, CST), FLAG (mouse, 1:250,000, Sigma, F3165), GAPDH (mouse, 1:100,000-500,000, Meridian Life science, H86504M), GST (1:10,000, Sigma, G7781), MFN1 (mouse, 1:5,000, Abcam, ab57602), MFN2 (mouse, 1:5,000, Abcam, ab56889), Parkin (mouse, 1:2,000, Cell Signaling, #4211), pSer65-Ub (rabbit, 1:15,000, in-house (Fiesel et al., EMBO Reports (2015) 16:1114-30; Fiesel et al., (2015) Autophagy 11:2125-2126)), TOM70 (rabbit, 1:5,000, Proteintech, 14528-1-AP), UBE2L3 (rabbit, 1:10,000, ProteinTech, 14415-1-AP), VDAC1 (mouse, 1:5,000, Abcam, ab14734), vinculin (mouse, 1:100,000, Sigma, V9131).
As readout for its activation, a catalytic site mutant that can be used to trap Ub-charged Parkin was employed. […] To further validate effects on enhanced activation, we used HeLa cells expressing untagged native Parkin. PC treatment with 10 μM CCCP induced pSer65-Ub signals and the complete degradation of some substrates (e.g., Mitofusins) while the most abundant, VDAC1, was still ubiquitylated (FIG. 8). Similar effects were seen when cells had been pre-incubated with 5 μM of compound before a low dose CCCP, which had no effect on its own.

[1] = tested on: Salmonella typhimurium and Escherichia coli tester strains; experiment: Bacterial reverse mutation assay (Ames Test), all tester strains; details: for mutagenic potential for the tester strains: 50, 100 and 200 μM; for precipitate in strain-compound-GM medium mixture: final concentration 200 μM
From the text: (§2) The test used amino acid-dependent strains of Salmonella typhimurium and Escherichia coli to detect point mutations which involved substitution, addition or deletion of one or a few DNA base pairs. Point mutations were introduced in the histidine (Salmonella typhimurium) or the tryptophan (Escherichia coli) operon, making the tester strains incapable of producing these amino acids. The test detected mutations that revert the mutations present in the bacteria, restoring the functional capability to synthesize histidine or tryptophan. The revertant bacteria were detected by the ability to grow in the absence of the amino acid required by the parent test strain. A mutagenic potential of a tested compound was assessed by exposing these bacterial strains to different concentrations of the compounds and estimating number of revertant colonies grown in the absence (trace quantities) of the amino acid.
(§3) DMSO was used as the negative control.
(§4) For each experiment, tester strain cultures were grown overnight in Oxoid nutrient broth #2 at 37° C. with shaking at 235 rpm to a density of 1-2×10^9 colony forming units/mL (OD540˜2).
(§5) The tester strain (10 μL of night culture) was mixed with the test agent (10 µL of the DMSO stock) and GM liquid medium (30 μL). The obtained mixture was incubated at room temperature for 5 min in a sterile 1.5 mL tube. Then, to the tube was added 200 μL of molten top agar stored at 44° C. to prevent solidifying. After mixing with a pipette, the mixture was poured onto the surface of a GM agar plate (2.0 mL of GM agar per plate). After solidifying the top agar, the plate was inverted and incubated at 37° C. for 48 hours. Then, results were expressed as number of revertant colonies per plate.

TA 100 = experiment: Ames Test, strain TA 100
From the text: as §2, §3, §4, §5

TA 1535 = tested on: TA 1535
From the text: as §2, §3, §4, §5

hERG channel = hERG channel (Homo sapiens (Human), UniProt Q12809)
Chain of hERG channel (Q12809 whole entry): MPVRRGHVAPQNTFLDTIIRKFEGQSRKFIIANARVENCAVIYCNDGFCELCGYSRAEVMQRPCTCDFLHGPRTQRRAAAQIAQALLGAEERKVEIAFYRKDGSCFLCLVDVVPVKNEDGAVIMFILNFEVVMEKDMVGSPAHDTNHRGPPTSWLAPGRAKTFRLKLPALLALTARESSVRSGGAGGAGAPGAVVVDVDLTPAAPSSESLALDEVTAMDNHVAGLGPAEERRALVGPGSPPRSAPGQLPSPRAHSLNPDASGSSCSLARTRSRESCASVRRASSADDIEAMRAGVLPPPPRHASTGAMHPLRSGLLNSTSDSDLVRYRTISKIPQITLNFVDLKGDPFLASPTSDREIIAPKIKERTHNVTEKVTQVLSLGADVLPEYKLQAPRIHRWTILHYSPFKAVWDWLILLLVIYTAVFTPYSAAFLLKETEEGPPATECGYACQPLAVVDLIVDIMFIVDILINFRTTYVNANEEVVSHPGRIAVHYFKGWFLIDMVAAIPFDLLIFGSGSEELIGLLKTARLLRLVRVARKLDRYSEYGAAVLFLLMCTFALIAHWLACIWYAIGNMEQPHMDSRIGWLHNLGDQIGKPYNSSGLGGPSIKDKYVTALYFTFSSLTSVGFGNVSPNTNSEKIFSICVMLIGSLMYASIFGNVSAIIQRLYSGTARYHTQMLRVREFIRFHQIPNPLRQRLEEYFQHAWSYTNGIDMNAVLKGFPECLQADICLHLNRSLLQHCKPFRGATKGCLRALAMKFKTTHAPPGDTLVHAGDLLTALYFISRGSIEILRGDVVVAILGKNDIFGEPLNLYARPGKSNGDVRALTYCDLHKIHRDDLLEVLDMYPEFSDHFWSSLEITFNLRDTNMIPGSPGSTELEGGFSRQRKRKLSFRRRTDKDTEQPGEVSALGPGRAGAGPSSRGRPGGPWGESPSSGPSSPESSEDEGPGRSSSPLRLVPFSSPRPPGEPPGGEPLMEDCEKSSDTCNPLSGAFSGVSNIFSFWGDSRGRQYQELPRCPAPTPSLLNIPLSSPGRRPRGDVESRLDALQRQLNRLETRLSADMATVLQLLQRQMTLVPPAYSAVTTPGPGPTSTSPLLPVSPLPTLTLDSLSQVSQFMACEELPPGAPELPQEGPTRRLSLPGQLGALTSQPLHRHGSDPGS
From the text: Fluorescence polarization (FP) readout technology is based on the observation that when a small fluorescent molecule (the tracer) is excited by the polarized light, the emitted light is largely depolarized because of the rapid rotation of the molecule in the solution during its fluorescence lifetime. The hERG predictor assay provides valuable information about the possible binding of test compounds to the potassium channel and potential QT prolongation on […].
All experiments were performed using the Predictor™ hERG Fluorescence Polarization Assay in accordance with the manufacturer's protocol PV5365 (Invitrogen, Carlsbad, Calif.).
The hERG reaction was performed by incubating the tracer and membranes with hERG channel for 2-4 hours in the solution. The fluorescence polarization was maximal when nothing interfered with the reaction of the tracer and hERG membranes (minimal tracer rotation). But when a tested compound competed with the tracer for the hERG channel, the polarization of emitted light lowered due to the ability of free unbound tracer to rotate rapidly in the solution.
All test points for the compounds were performed in quadruplicates. Three dilutions of the tested compounds were assessed—1 μM, 5 μM and 20 μM.

Row | Structure (SMILES) | Parkin substrate levels (ubiquitination and degradation) (Parkin) | pS65-Ub signal (western blot) (Parkin) | mutagenic potential for the tester strains [1] | Fold increase (over baseline) (TA 100; TA 100, 50 μM) | Mean ± SD (TA 100; TA 100, 50 μM) | Fold increase (over baseline) (TA 100; TA 100, 100 μM) | Mean ± SD (TA 100; TA 100, 100 μM) | Fold increase (over baseline) (TA 100; TA 100, 200 μM) | Mean ± SD (TA 100; TA 100, 200 μM) | Fold increase (over baseline) (TA 1535; TA 1535, 50 μM) | Mean ± SD (TA 1535; TA 1535, 50 μM) | Fold increase (over baseline) (TA 1535; TA 1535, 100 μM) | Mean ± SD (TA 1535; TA 1535, 100 μM) | Fold increase (over baseline) (TA 1535; TA 1535, 200 μM) | Mean ± SD (TA 1535; TA 1535, 200 μM) | Binding values, % Mean (hERG channel; 1 μM) [%] | Binding values, % Mean (hERG channel; 5 μM) [%] | Binding values, % Mean (hERG channel; 20 μM) [%] | precipitate in strain-compound-GM medium mixture [1] | further results
1 | Cc1nc2c(c(N3CCCN(Cc4ccccc4)CC3)n1)CCCC2 [Compound 31] | reduced substrate levels | robust induction of pS65-Ub | no mutagenic potential | 1.04 | 6.5 ± 0.7 revertant colonies per plate | 0.97 | 6 ± 0 revertant colonies per plate | 0.97 | 6 ± 1.41 revertant colonies per plate | 0.57 | 2.5 ± 2.12 revertant colonies per plate | 0.23 | 1 ± 0 revertant colonies per plate | 0.57 | 2.5 ± 0.7 revertant colonies per plate | 45 | 73 | 88 |  | 
2 | CC(C)(C)Sc1ccc(NC(=O)Cn2ccnc2)cc1 [Compound 3] | reduced substrate levels | robust induction of pS65-Ub |  | 0.85 | 5.5 ± 0.7 revertant colonies per plate | >32 | >200 revertant colonies per plate | >48 | >300 revertant colonies per plate | 0.34 | 1.5 ± 0.7 revertant colonies per plate | 0 | 0 ± 0 revertant colonies per plate | >34 | >150 revertant colonies per plate | 41 | 115 | 99 |  | mutagenic activity (TA 100; TA 100, both 100 and 200 μM): mutagenic activity; mutagenic activity (TA 1535; TA 1535, 200 μM): mutagenic activity
3 | O=C(Cn1cnc2c1CCCC2)Nc1ccc(-c2ccccc2)cc1 [Compound 1] | reduced substrate levels | robust induction of pS65-Ub | no mutagenic potential | 0 | 0 ± 0 revertant colonies per plate | 0 | 0 ± 0 revertant colonies per plate | 0 | 0 ± 0 revertant colonies per plate | 0.23 | 1 ± 0 revertant colonies per plate | 0 | 0 ± 0 revertant colonies per plate | 0 | 0 ± 0 revertant colonies per plate | 83 | 99 | 103 | Precipitate was observed | 
4 | O=C(Cn1ccnc1-c1ccccn1)Nc1ccc(-c2ccccc2)cc1 [Compound 4] | reduced substrate levels | robust induction of pS65-Ub | no mutagenic potential | 0.89 | 5.5 ± 2.12 revertant colonies per plate | 1.2 | 7.5 ± 3.54 revertant colonies per plate | 0.65 | 4 ± 1.41 revertant colonies per plate | 0.23 | 1 ± 0 revertant colonies per plate | 0.34 | 1.5 ± 0.7 revertant colonies per plate | 0 | 0 ± 0 revertant colonies per plate | 26 | 27 | 22 | Precipitate was observed | 
5 | CC(C)c1nccn1CC(=O)Nc1ccc(-c2ccccc2)cc1 [Compound 2] | reduced substrate levels | robust induction of pS65-Ub | no mutagenic potential | 1.37 | 8.5 ± 6.36 revertant colonies per plate | 0.97 | 6 ± 2.83 revertant colonies per plate | 1.61 | 10 ± 0 revertant colonies per plate | 0 | 0 ± 0 revertant colonies per plate | 0.68 | 3 ± 0 revertant colonies per plate | 0.23 | 1 ± 0 revertant colonies per plate | 47 | 74 | 91 |  | 
